US11701358B2, “Methods of inhibiting serum glucocorticoid induced kinase 1 (SGKI) as a treatment for salt and water balance diseases” (Indiana University Research and Technology Corporation, priority 2017, dated 2023)
“Also recorded” adds a separate entry of the source.

Legend:
[1] = test system: heterozygous Wpk rat model of hydrocephalus; assay: MRI of lateral ventricular volumes in heterozygous Wpk rat model; format: in vivo; settings: heterozygous Wpk rats, 8 mg/kg BW i.p. daily for 8 days, versus vehicle, P=0.039 Mann-Whitney
Experimental: FIG. 4 depicts MRI quantification of the effects of SI113 on hydrocephalus in the heterozygous Wpk rat model. The bars represent the difference in volumes of the lateral ventricles measured at postnatal (P) day 7 and P15. The volumes were measured by MRI before treatment with vehicle or SI 113 (8 mg/kg BW; i.p. daily) and again after 8 days of treatment. The difference in the volume for each of the animals was calculated and the averages ±SEM are shown in the bar graph. The number of animals in each study is noted as n. Approximately equal numbers of male and female animals were used.
The Wpk rat model is unique in that the genetic defect causes a severe hydrocephalus in the homozygous affected animals (see FIG. 1) and a mild hydrocephalus in the heterozygous animals (see FIG. 4). The heterozygous animals live for at least year. […] In this model the hydrocephalus is not severe enough to change head dimensions so the effect of the SI113 on the hydrocephalus was measured using MRI. […] Volumes of interest on lateral ventricles were determined from threshold based image segmentation of native cerebrospinal fluid contrast, and images were quantified for lateral ventricular volumes using Analyze 12.0. The MRIs were conducted on each animal on day 7 and day 15 and the differences in lateral ventricular volumes were calculated (FIG. 4).

[2] = test system: Wpk rat model (TMEM67-/-) of hydrocephalus; assay: Head dimensions in homozygous Wpk rat model of hydrocephalus; format: in vivo; settings: homozygous Wpk rats
Experimental: The effectiveness of SI 113 was tested in a genetic model of hydrocephalus, the Wpk rat model. In this model, the homozygous animals (TMEM67−/−) carry a single point mutation in TMEM67, one of a complex of proteins involved in the formation of the primary cilium. The homozygous affected animals have severe hydrocephalus and renal cystic disease. They typically survive for 18-21 days after birth, and the developing hydrocephalus can be monitored by measuring the head size in a manner analogous to measuring head sizes in human children.
In FIG. 1, the head sizes in both the horizontal and vertical dimensions are shown.

[3] = test system: epithelial sodium channel (ENaC); assay: Short-circuit current, basal ENaC activity in mCCD cells; format: cell-based, mouse; settings: mCCD cell monolayer, Ussing chamber
From the text: The mouse cortical collecting duct (mCCD) cell line is a continuous, high resistance cell line that has the characteristics of the principal cells that line the kidney distal tubules. In this segment of the tubules, a transport protein, the epithelial sodium channel (ENaC), is responsible for the reabsorption of sodium from the kidney filtrate and the return of this ion to the bloodstream. As the concentration of sodium increases in the blood, the increased osmotic concentration will cause a compensatory movement of water from cells all over the body into the blood and an increase in blood volume and blood pressure. ENaC is an important transport protein and its function plays a major role in the regulation of whole body salt and water balance. Increases in the activity of ENaC can cause hypertension and many hypertension medications target the intracellular signaling pathways that culminate in the activation of ENaC. For example, ENaC is inhibited by the diuretic, amiloride.
The mCCD cell line was grown in tissue culture media consisting of Dulbecco's Minimal Essential media (DMEM):Hams F12 supplemented with 5% fetal bovine serum and penicillin (100 U/ml) and streptomycin ([…]). Cultured cells in both flasks and on Transwells had the media changed thrice weekly. […] In the current Example, the basal activity of ENaC in the cells is the parameter that is monitored.

[4] = test system: PCP-R porcine choroid plexus cell line; assay: Short-circuit current, TRPV4 agonist-stimulated transepithelial ion transport in PCP-R cells; format: cell-based; settings: PCP-R cells in Ussing chamber, pretreatment at t=-10 minutes, agonist at t=0
Experimental: PCP-R (porcine choroid plexus, high resistance) cell line was grown to confluence on permeable Transwell supports. The PCP-R cell line is grown in tissue culture media consisting of Dulbecco's Minimal Essential media (DMEM) supplemented with 10% fetal bovine serum and penicillin (100 U/ml) and streptomycin ([…]). Cultured cells in both flasks and on Transwells had the media changed thrice weekly. After attaining a high resistance phenotype (days 10-12 after seeding on the Transwells), the cultures were removed from the plastic supports and mounted in an Ussing chamber for electrophysiological measurements (short-circuit current (SCC)) of net transepithelial ion transport. A negative deflection is indicative of anion absorption (CSF to blood) and/or cation secretion (blood to CSF). GSK1016797 is an agonist of TRPV4, an osmo- and mechano-sensitive channel which, when stimulated, allows Ca^2+ to enter the cells. The increased intracellular Ca^2+ secondarily stimulates Ca^2+-sensitive channels. In the case of the PCP-R cells, this process stimulates Ca^2+-sensitive K^+ channels causing the secretion of K^+ and, secondarily, water into the cerebrospinal fluid. […] All cultures were stimulated with GSK1016797 at time t=0.

| Compound | hydrocephalus, difference in lateral ventricular volumes between P7 and P15 by MRI [1] | head dimensions of treated hydrocephalic animals compared with wild-type animals ([2]; after treatment post-natal day 7 to day 15) | head dimensions (horizontal and vertical) of hydrocephalic animals ([2]; treatment post-natal day 7 to day 15, versus vehicle, *p=0.009, # p=0.03, 1-tailed t-test) | short-circuit current (SCC), transepithelial sodium transport via ENaC [3] | response (short-circuit current) to TRPV4 agonist GSK1016797 [4] |
| --- | --- | --- | --- | --- | --- |
| OCCNc1nc(NCCc2ccccc2)c2cnn(/C=C/c3ccccc3)c2n1 [SI 113, 2-({1-(2-phenylethenyl)-4-[(2-phenylethy)amino]-1H-pyrazolo[3,4-d]pyrimidin-6-yl}amino)ethanol] | statistically significant difference; also recorded: effectively decreased the hydrocephalus | not statistically different than the wild-type animals | significantly decreased the head dimensions | caused a decrease in the SCC | completely blocked |
| N=C(N)NC(=O)c1nc(Cl)c(N)nc1N [amiloride, reference compound] | – | – | – | strongly inhibited | – |
